How the values were obtained:
[1] = target: T1, PR-B (Homo sapiens, UniProt P06401); assay: PR-B transactivation of PRE2 tk-LUC; format: cell-based; conditions: CV-1, 10^-7 M progesterone, FIG. 4A
T1 sequence (P06401 1-933): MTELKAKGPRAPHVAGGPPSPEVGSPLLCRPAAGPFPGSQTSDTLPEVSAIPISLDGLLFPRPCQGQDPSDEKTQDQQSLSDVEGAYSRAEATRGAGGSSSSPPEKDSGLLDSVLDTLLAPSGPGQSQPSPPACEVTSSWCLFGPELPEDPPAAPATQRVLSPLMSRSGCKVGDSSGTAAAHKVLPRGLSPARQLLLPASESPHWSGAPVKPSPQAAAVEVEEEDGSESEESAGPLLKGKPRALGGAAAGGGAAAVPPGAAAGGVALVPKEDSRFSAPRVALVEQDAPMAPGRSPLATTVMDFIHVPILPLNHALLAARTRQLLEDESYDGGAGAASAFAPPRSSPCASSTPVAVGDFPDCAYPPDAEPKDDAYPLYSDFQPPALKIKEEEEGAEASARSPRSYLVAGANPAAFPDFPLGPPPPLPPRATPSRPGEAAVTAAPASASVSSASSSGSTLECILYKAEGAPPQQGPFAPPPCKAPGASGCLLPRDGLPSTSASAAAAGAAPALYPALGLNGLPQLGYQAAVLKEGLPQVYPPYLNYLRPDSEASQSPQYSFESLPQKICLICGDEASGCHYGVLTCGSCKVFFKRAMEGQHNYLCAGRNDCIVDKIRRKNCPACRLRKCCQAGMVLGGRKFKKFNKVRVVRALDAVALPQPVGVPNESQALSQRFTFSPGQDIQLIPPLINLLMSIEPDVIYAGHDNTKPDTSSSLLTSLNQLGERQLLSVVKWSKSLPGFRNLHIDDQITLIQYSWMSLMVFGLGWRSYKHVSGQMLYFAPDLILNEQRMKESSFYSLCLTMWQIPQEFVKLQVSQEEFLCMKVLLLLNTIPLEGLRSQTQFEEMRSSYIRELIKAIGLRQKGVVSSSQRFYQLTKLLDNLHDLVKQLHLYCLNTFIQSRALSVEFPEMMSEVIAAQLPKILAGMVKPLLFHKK
Experimental: (§1) FIGS. 4A-4B are a series of graphs showing CV-1 ([…]) or HepG2 (FIG. 4B) cells that were transiently transfected with either […] of phPR-B or phPR-A alone, or phPR-B in the presence of increasing concentrations of phPR-A, together with 5 µg/ml of the PRE2 tk-LUC reporter and 5 µg/ml of pCH110 as an internal control. HeLa cells (FIG. 4C) were transfected with either phPR-B or phPR-A together with 5 µg/ml of the pTAT2950 reporter and 5 µg/ml of pCH110 as an internal control. […] The relative luciferase activity is calculated by dividing the normalized luciferase value at a given point by that obtained in the absence of transfected receptor or ligand. The data shown represent the mean +/- average deviation from the mean of triplicate estimations;
(§2) Both reporter plasmids were digested with XhoI and HindIII restriction enzymes and a 6.7 Kb fragment from MMTV-LUC and a 0.12 Kb fragment from PRE2 tk-CAT were isolated and ligated, resulting in a plasmid called PRE2 tk-LUC.
(§3) Cells were seeded in 12-well, 96-well or 10 cm tissue culture plates. […] 20 μg of DNA/ml of transfection buffer were used in each transfection reaction. […]

[2] = target: T2, PR-A (Homo sapiens, UniProt P06401); assay: PR-A transactivation of PRE2 tk-LUC; format: cell-based; parameters: PRE2 tk-LUC in CV-1
T2 sequence (P06401 165-933): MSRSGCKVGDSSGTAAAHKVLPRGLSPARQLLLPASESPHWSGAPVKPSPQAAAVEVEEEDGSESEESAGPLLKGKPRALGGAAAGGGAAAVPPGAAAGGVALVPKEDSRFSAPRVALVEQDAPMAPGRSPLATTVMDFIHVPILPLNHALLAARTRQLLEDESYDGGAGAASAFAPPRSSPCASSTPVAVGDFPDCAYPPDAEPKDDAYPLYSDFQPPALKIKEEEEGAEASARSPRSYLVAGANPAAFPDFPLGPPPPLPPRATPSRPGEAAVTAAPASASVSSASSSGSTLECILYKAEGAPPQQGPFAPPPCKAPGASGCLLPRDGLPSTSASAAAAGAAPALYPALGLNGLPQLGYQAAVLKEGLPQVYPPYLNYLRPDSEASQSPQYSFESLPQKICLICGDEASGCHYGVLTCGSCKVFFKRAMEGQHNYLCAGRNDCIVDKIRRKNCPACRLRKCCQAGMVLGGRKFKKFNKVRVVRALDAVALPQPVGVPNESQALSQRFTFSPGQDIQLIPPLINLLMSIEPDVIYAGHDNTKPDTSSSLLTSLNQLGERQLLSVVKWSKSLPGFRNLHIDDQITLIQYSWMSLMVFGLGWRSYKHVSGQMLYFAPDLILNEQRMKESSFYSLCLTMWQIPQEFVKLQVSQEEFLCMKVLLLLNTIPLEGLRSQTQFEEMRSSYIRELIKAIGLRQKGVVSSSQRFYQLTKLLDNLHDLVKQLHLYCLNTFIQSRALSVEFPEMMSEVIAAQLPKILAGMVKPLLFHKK
Experimental: as §1, §2, §3

Compound: CC(=O)[C@H]1CC[C@H]2[C@@H]3CCC4=CC(=O)CC[C@]4(C)[C@H]3CC[C@]12C [progesterone]
- PR-B transcriptional activity on PRE2 tk-LUC [1]: transcriptionally active
- PR-A transcriptional activity on PRE2 tk-LUC ([2]; CV-1, 10^-7 M progesterone, FIG. 4A): transcriptionally inactive
- PR-A transcriptional activity on PRE2 tk-LUC ([2]; HepG2, 10^-7 M progesterone, FIG. 4B): activator of transcription
